In patent US9113629B2, “4-amino-6-(4-substituted-phenyl)-picolinates and 6-amino-2-(4-substituted-phenyl)-pyrimidine-4-carboxylates and their use as herbicides” (DOW AGROSCIENCES LLC, priority 2013, dated 2015):
Read-outs that look alike come from different tables or passages of the source.

Assays:
[1] = test system: Key Broadleaf Weed and Crop Species; assay: Post-emergent Test II herbicidal activity (Table 5); type: in vivo; conditions: post-emergence, 336 h, 14 days after application; for pest or weed control at 70 g/ha: application rate 70 g ai/ha; for pest or weed control at 140 g/ha: application rate 140 g ai/ha
Procedure, shortened: (§1)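 Scoring: visual, 0–100% injury at 14 d versus untreated. Treatment: overhead track spray, 187 L/ha, onto plants at the first–second true leaf stage. Growth: greenhouse, ~15 h light, 23–29 °C day, 22–28 °C night.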

[2] = test system: Key Grass and Sedge Weeds as well as Grass Crops; assay: Post-emergent Test II herbicidal activity (Table 6); type: in vivo; conditions: post-emergence, 336 h; for pest or weed control at 70 g/ha: 70 g ai/ha; for pest or weed control at 140 g/ha: 140 g ai/ha
Procedure, shortened: as §1

[3] = ABUTH: velvetleaf (Abutilon theophrasti), read-out: Visual Growth Reduction (%) 14 Days After Application, ABUTH
[4] = AMARE: redroot pigweed (Amaranthus retroflexus), read-out: Visual Growth Reduction (%) 14 Days After Application, AMARE
[5] = BRSNN: oilseed-rape, canola (Brassica napus), read-out: Visual Growth Reduction (%) 14 Days After Application, BRSNN
[6] = CHEAL: lambsquarters (Chenopodium album), read-out: Visual Growth Reduction (%) 14 Days After Application, CHEAL
[7] = EPHHL: wild poinsettia (Euphorbia heterophylla), read-out: Visual Growth Reduction (%) 14 Days After Application, EPHHL
[8] = HELAN: sunflower (Helianthus annuus), read-out: Visual Growth Reduction (%) 14 Days After Application, HELAN
[9] = VIOTR: wild pansy (Viola tricolor), read-out: Visual Growth Reduction (%) 14 Days After Application, VIOTR
[10] = CYPES: yellow nutsedge (Cyperus esculentus), read-out: Visual Growth Reduction (%) 14 Days After Application, CYPES
[11] = DIGSA: crabgrass (Digitaria sanguinalis), read-out: Visual Growth Reduction (%) 14 Days After Application, DIGSA
[12] = ECHCG: barnyardgrass (Echinochloa crus-galli), read-out: Visual Growth Reduction (%) 14 Days After Application, ECHCG
[13] = ORYSA: rice (Oryza sativa), crop, read-out: Visual Growth Reduction (%) 14 Days After Application, ORYSA
[14] = SETFA: giant foxtail (Setaria faberi), read-out: Visual Growth Reduction (%) 14 Days After Application, SETFA
[15] = SORVU: grain sorghum (Sorghum vulgare), read-out: Visual Growth Reduction (%) 14 Days After Application, SORVU
[16] = TRZSS (wheat, Triticum aestivum), crop, read-out: Visual Growth Reduction (%) 14 Days After Application, TRZSS
[17] = ZEAMX: maize, corn (Zea mays), crop, read-out: Visual Growth Reduction (%) 14 Days After Application, ZEAMX

Nc1c(F)c(-c2ccc(Br)c(F)c2F)nc(C(=O)O)c1Cl [Compound 147]
85 to 94%: pest or weed control at 70 g/ha [2, 11]
75 to 84%: pest or weed control at 140 g/ha [2, 13]
95 to 100%: pest or weed control at 70 g/ha [1, 3] | pest or weed control at 70 g/ha [1, 4] | pest or weed control at 140 g/ha [1, 4] | pest or weed control at 70 g/ha [1, 5] | pest or weed control at 140 g/ha [1, 5] | pest or weed control at 70 g/ha [1, 6] | pest or weed control at 140 g/ha [1, 6] | pest or weed control at 70 g/ha [1, 7] | pest or weed control at 140 g/ha [1, 7] | pest or weed control at 70 g/ha [1, 8] | pest or weed control at 140 g/ha [1, 8] | pest or weed control at 70 g/ha [1, 9] | pest or weed control at 140 g/ha [1, 9] | pest or weed control at 70 g/ha [2, 10] | pest or weed control at 140 g/ha [2, 10] | pest or weed control at 140 g/ha [2, 11] | pest or weed control at 70 g/ha [2, 12] | pest or weed control at 140 g/ha [2, 12] | pest or weed control at 140 g/ha [2, 14] | pest or weed control at 70 g/ha [2, 15] | pest or weed control at 140 g/ha [2, 15] | pest or weed control at 70 g/ha [2, 17] | pest or weed control at 140 g/ha [2, 17]
0 to 29%: pest or weed control at 140 g/ha [1, 3] | pest or weed control at 70 g/ha [2, 14]
60 to 74%: pest or weed control at 70 g/ha [2, 13] | pest or weed control at 70 g/ha [2, 16] | pest or weed control at 140 g/ha [2, 16]
